According to patent US20110152227A1, “DEUTERIUM LABELLED DERIVATIVES OF 3-(2-HYDROXY-5-METHYPHENYL)-N,N-DIISOPROPYL-3-PHENYLPROPYLAMINE AND METHODS OF USE THEREOF” (CONCERT PHARMACEUTICALS INC., priority 2008, published 2011):
Like-named read-outs stand apart in the source and are kept apart here.

Assay: Evaluation of metabolic stability in human liver microsomes
Format: in vitro ADME
Settings: for half-life at 1 μM: human, human liver microsomes; for half-life in human liver microsomes as compared to tolterodine: result in words, versus tolterodine
Procedure: Materials: Human liver microsomes (20 mg/mL) were obtained from Xenotech, LLC (Lenexa, Kans.). β-nicotinamide adenine dinucleotide phosphate, reduced form (NADPH), magnesium chloride (MgCl2), and dimethyl sulfoxide (DMSO) were purchased from Sigma-Aldrich.
The 7.5 mM stock solutions were diluted to 50 μM in acetonitrile (ACN). The 20 mg/mL human liver microsomes were diluted to 0.625 mg/mL in 0.1 M potassium phosphate buffer, pH 7.4, containing 3 mM MgCl2. The diluted microsomes were added to wells of a 96-well deep-well polypropylene plate in duplicate. Ten μL of one of the […] test compound solutions was added to the microsomes and the mixture was pre-warmed for 10 minutes. Reactions were initiated by addition of pre-warmed NADPH solution. The final reaction volume was 0.5 mL and contained 0.5 mg/mL human liver microsomes, 1 μM test compound, and 2 mM NADPH in 0.1 M potassium phosphate buffer, pH 7.4, and 3 mM MgCl2. The reaction mixtures were incubated at 37° C., and 50 μL aliquots were removed at 0, 5, 10, 20, and 30 minutes and added to shallow-well 96-well plates which contained 50 μL of ice-cold ACN with internal standard to stop the reactions. The plates were stored at 4° C. for 20 minutes after which 100 μL of water was added to the wells of the plate before centrifugation to pellet precipitated proteins. Supernatants were transferred to another 96-well plate and analyzed for amounts of parent remaining by LC-MS/MS using an Applied Bio-systems API 4000 mass spectrometer. 7-ethoxy coumarin (1 μM) was used as a positive control. The experiment was repeated as second time to confirm the results.
Data analysis: The in vitro t1/2s for test compounds were calculated from the slopes of the linear regression of % parent remaining (ln) vs incubation time relationship using the following formula: in vitro t1/2=0.693/k, where k=−[slope of linear regression of % parent remaining (ln) vs incubation time]. Data analysis was performed using Microsoft Excel Software.

[1] = pH 7.4, average of Experiment 1 and 2, human liver microsomes, read-out: Ave t1/2
[2] = pH 7.4, human liver microsomes 0.5 mg/mL, 1 μM test compound, 2 mM NADPH, 37° C., 0-30 minutes, Experiment 1, read-out: t1/2 (minutes) Experiment 1
[3] = pH 7.4, human liver microsomes 0.5 mg/mL, 1 μM test compound, 2 mM NADPH, 37° C., 0-30 minutes, Experiment 2 (repeat), read-out: t1/2 (minutes) Experiment 2

Row | Structure (SMILES) | half-life at 1 μM [1] [min] | half-life at 1 μM [2] [min] | half-life at 1 μM [3] [min] | half-life in human liver microsomes as compared to tolterodine
1 | [2H]C([2H])([2H])c1ccc(O)c([C@H](CCN(C([2H])(C([2H])([2H])[2H])C([2H])([2H])[2H])C([2H])(C([2H])([2H])[2H])C([2H])([2H])[2H])c2ccccc2)c1 [Compound 100] | 25.8 | 23.5 | 28 | substantially increased half-life
2 | [2H]C([2H])([2H])C([2H])(N(CC[C@H](c1ccccc1)c1cc(C)ccc1O)C([2H])(C([2H])([2H])[2H])C([2H])([2H])[2H])C([2H])([2H])[2H] [Compound 106, (R)-2-(3-(Di(isopropyl-d7)amino)-1-phenylpropyl)-4-methylphenol] | 15.1 | 14.6 | 15.6 | 
3 | [2H]C([2H])([2H])c1ccc(O)c([C@H](CCN(C(C)C)C(C)C)c2ccccc2)c1 [Compound 112] | 26.6 | 24.3 | 28.9 | substantially increased half-life
4 | Cc1ccc(O)c(C(CCN(C(C)C)C(C)C)c2ccccc2)c1 (centres unmarked) [Tolterodine, 3-(2-hydroxy-5-methylphenyl)-N,N-diisopropyl-3-phenylpropylamine, reference compound] | 13.8 | 13.4 | 14.2 | 
